Results reported in US20110237508A1, “Peptide Formulations and Uses Thereof” (RIJKSUNIVERSITEIT GRONINGEN, priority 2008, published 2011).

Columns and labels:
[1] = oral tablets, simulated tropical conditions; cited from earlier work
[2] = Precipitation of oxytocin in citrate buffer with Ca2+; format: physicochemical; details: 100 mM Ca2+
Experimental: (§1) Citrate buffer (CB) was used at concentrations of 5, 10 or 50 mM. […] Samples of each formulation were stored for 4 weeks at 4° C. (control) or 55° C. (test). Thereafter, all samples were stored under cooled conditions (2-8° C.) before analysis by RP-HPLC and HP-SEC. Effects on stability were determined by measuring the recovery of oxytocin and the percentage of oxytocin-monomers. The results are presented in FIGS. 4A and 4B (citrate buffer with Ca^2+), 5A and 5B (citrate buffer with Mg^2+) and 6A and 6B (citrate buffer with Zn^2+).

[3] = cited from earlier work
[4] = Oxytocin recovery by RP-HPLC after 4 weeks storage at 4 or 55° C.; format: physicochemical; details: pH 4.5, 4 weeks
Experimental: As shown herein below, the stabilizing effect of the combination of a buffer and at least one source of divalent metal ions at a concentration of at least 2 mM in an aqueous oxytocin formulation was determined by measuring the recovery of oxytocin (remaining oxytocin as % of initial amount), the amount of oxytocin-monomers (% of total remaining oxytocin) and/or the level of aggregation (aggregated oxytocin as % of total remaining oxytocin) upon prolonged storage at elevated (e.g. 55° C.) temperatures. These parameters can be assessed by using any method for analysis deemed suitable by a person skilled in the art. Examples of suitable methods for analysis include, but are not limited to, reversed-phase high-performance liquid chromatography (RP-HPLC) and high-performance size exclusion chromatography (HP-SEC). Thus, suitable concentrations of divalent metal ions to achieve the stabilizing effect at elevated temperatures can be determined by those skilled in the art. They may vary, e.g. depending on the composition of the formulation or its intended application. In one embodiment, a formulation comprises oxytocin or vasopressin and at least 2 mM, preferably at least 5, more preferably at least 10 mM divalent metal ions and a buffer. In another embodiment, a pH-buffered formulation comprises divalent metal ions in a concentration of up to 150 mM, preferably up to 100 mM, more preferably up to 50 mM. For example, a formulation comprises divalent metal ions in a concentration between 5 and 150 mM, preferably between 10 and 100 mM, more preferably between 10 and 50 mM. In one embodiment, between 2 and 150 mM divalent metal ions, preferably 5-100 mM, such as 10, 20, 25, 30, 40 or 50 mM, and a buffer are used to stabilize an aqueous peptide formulation. In another embodiment, a divalent metal ion concentration in the range from 20 to 100 mM is used, like 30-100 mM, 40-80 mM or 50-70 mM. Other suitable ranges include between 2 and 50 mM, between 30 and 60 mM and between 40 and 70 mM divalent metal ions. […]
Samples of each formulation were stored for 4 weeks at 4° C. (control) or 55° C. (test). Thereafter, all samples were stored under cooled conditions (2-8° C.) before analysis by RP-HPLC and HP-SEC. Effects on stability were determined by measuring the recovery of oxytocin and the percentage of oxytocin-monomers.
The thermal stability of oxytocin in the presence of combinations of a buffer and monovalent metal ions was investigated. Citrate buffer (CB), acetate buffer (AC) or aspartate buffer (AP) was used at a concentration of 10 mM. Monovalent metal ions Na^+ and K^+ were added in the form of their chloride salt (NaCl and KCl) and used in final concentrations of 10 and 20 mM. […] Samples of each formulation were stored for 4 weeks at 4° C. (control) or 55° C. (test). Thereafter, all samples were stored under cooled conditions (2-8° C.) before analysis by RP-HPLC and HP-SEC. Effects on stability were determined by measuring the recovery of oxytocin and the percentage of oxytocin-monomers.
as §1, with “concentrations of 5, 10 or 50 mM. Divalent metal ions (Ca^2+, Mg^2+ and Zn^2+) were added in the form of their chloride salt (CaCl2, MgCl2 and ZnCl2) and used in final concentrations of 0, 2, 5, 10” for “concentrations of 5, 10”
Divalent metal ions (Ca^2+, Mg^2+ and Zn^2+) were added in the form of their chloride salt (CaCl2, MgCl2 and ZnCl2) and used in final concentrations of 0, 2, 5, 10 or 50 mM. […] Samples of each formulation were stored for 4 weeks at 4° C. […]

[5] = Long-term stability study at 40° C., oxytocin recovery by RP-HPLC; format: physicochemical; details: 10 mM citrate buffer and 50 mM Ca2+, pH 4.5, 6 months at 40° C.
Experimental: (§2) A long-term stability study was performed to assess the thermal stability of pH-buffered oxytocin formulations comprising divalent metal ions over prolonged periods. Citrate buffer (CB) was added in concentrations of 5, 10 or 50 mM to formulations comprising 0.1 mg/ml oxytocin and 0, 10 or 50 mM Ca^2+ (CaCl2). […] Samples of each formulation were stored for 1, 2, 3 or 6 months at 40° C. Thereafter, all samples were stored under cooled conditions (2-8° C.) before analysis by RP-HPLC and HP-SEC. Effects on stability were determined by measuring the recovery of oxytocin and the percentage of oxytocin-monomers.

[6] = Long-term stability study at 40° C., oxytocin monomers by HP-SEC; format: physicochemical; details: 10 mM citrate buffer and 50 mM Ca2+, pH 4.5, 6 months at 40° C.
Experimental: as §2

[7] = Oxytocin monomer recovery by HP-SEC after 4 weeks storage at 4 or 55° C.; format: physicochemical; details: pH 4.5, 4 weeks
Experimental: As shown herein below, the stabilizing effect of the combination of a buffer and at least one source of divalent metal ions at a concentration of at least 2 mM in an aqueous oxytocin formulation was determined by measuring the recovery of oxytocin (remaining oxytocin as % of initial amount), the amount of oxytocin-monomers (% of total remaining oxytocin) and/or the level of aggregation (aggregated oxytocin as % of total remaining oxytocin) upon prolonged storage at elevated (e.g. 55° C.) temperatures. These parameters can be assessed by using any method for analysis deemed suitable by a person skilled in the art. Examples of suitable methods for analysis include, but are not limited to, reversed-phase high-performance liquid chromatography (RP-HPLC) and high-performance size exclusion chromatography (HP-SEC). Thus, suitable concentrations of divalent metal ions to achieve the stabilizing effect at elevated temperatures can be determined by those skilled in the art. They may vary, e.g. depending on the composition of the formulation or its intended application. In one embodiment, a formulation comprises oxytocin or vasopressin and at least 2 mM, preferably at least 5, more preferably at least 10 mM divalent metal ions and a buffer. In another embodiment, a pH-buffered formulation comprises divalent metal ions in a concentration of up to 150 mM, preferably up to 100 mM, more preferably up to 50 mM. For example, a formulation comprises divalent metal ions in a concentration between 5 and 150 mM, preferably between 10 and 100 mM, more preferably between 10 and 50 mM. In one embodiment, between 2 and 150 mM divalent metal ions, preferably 5-100 mM, such as 10, 20, 25, 30, 40 or 50 mM, and a buffer are used to stabilize an aqueous peptide formulation. In another embodiment, a divalent metal ion concentration in the range from 20 to 100 mM is used, like 30-100 mM, 40-80 mM or 50-70 mM. Other suitable ranges include between 2 and 50 mM, between 30 and 60 mM and between 40 and 70 mM divalent metal ions.
Divalent metal ions (Ca^2+, Mg^2+ and Zn^2+) were added as metal chloride salts (MC12) to a non-buffered formulation comprising oxytocin and pure water (W). The divalent metal ions were used at concentrations of 0, 2, 5, 10 and 50 mM. […] Effects on stability were determined by measuring the recovery of oxytocin and the percentage of oxytocin-monomers.
Samples of each formulation were stored for 4 weeks at 4° C. […] Effects on stability were determined by measuring the recovery of oxytocin and the percentage of oxytocin-monomers.
The thermal stability of oxytocin in the presence of combinations of a buffer and monovalent metal ions was investigated. […] Effects on stability were determined by measuring the recovery of oxytocin and the percentage of oxytocin-monomers. […]

CC[C@H](C)[C@@H]1NC(=O)[C@H](Cc2ccc(O)cc2)NC(=O)CCSSC[C@@H](C(=O)N2CCC[C@H]2C(=O)N[C@@H](CC(C)C)C(=O)NCC(N)=O)NC(=O)[C@H](CC(N)=O)NC(=O)[C@H](CCC(N)=O)NC1=O [desamino-oxytocin]
stability of tablets [1]: not stable

C[C@@H](CO)NC(=O)[C@@H]1C=C2c3cccc4[nH]cc(c34)C[C@H]2N(C)C1 [ergometrine]
stability of tablets [1]: not stable

CC[C@H](C)[C@@H]1NC(=O)[C@H](Cc2ccc(O)cc2)NC(=O)[C@@H](N)CSSC[C@@H](C(=O)N2CCC[C@H]2C(=O)N[C@@H](CC(C)C)C(=O)NCC(N)=O)NC(=O)[C@H](CC(N)=O)NC(=O)[C@H](CCC(N)=O)NC1=O [oxytocin]
stability of tablets [1]: not stable
precipitation [2]: precipitates were observed
effect on oxytocin stability ([3]; dissolved in commercially obtainable lactated Ringer's solution): no effect on oxytocin stability at all
stability of oxytocin ([3]; in Ringer's, room temperature, 0.08 IU/ml): already compromised after 30 days
original quantity of oxytocin recovered ([4]; 10 mM acetate buffer & 10 mM Na+): ≤ 35%
remaining percentage of oxytocin ([4]; 10 mM acetate buffer with 50 mM Ca2+, 50 mM Mg2+ or 50 mM Zn2+): Small increases
stabilizing effect ([4]; 10 mM aspartate buffer with Ca2+ or Mg2+): only smaller effects
stabilizing effect ([4]; 10 mM aspartate buffer with Zn2+ (2-50 mM)): strong concentration-dependent stabilizing effect
oxytocin remained ([4]; 10 mM aspartate buffer with Zn2+): Up to 75%
thermal stability of oxytocin ([4]; 10 mM citrate, acetate or aspartate buffer with 10 or 20 mM Na+ or K+): minor effects
oxytocin stability ([4]; 50 mM citrate buffer with Ca2+): only increased together with 50 mM Ca^2+
oxytocin stability ([4]; 50 mM citrate buffer with Mg2+): only increased at 50 mM Mg^2+
oxytocin stability ([4]; 50 mM citrate buffer with Zn2+): only increased at 50 mM Zn^2+
oxytocin stability ([4]; 5 or 10 mM citrate buffer and 50 mM Ca2+): Largest increases in stability
oxytocin stability ([4]; 5 or 10 mM citrate buffer and 50 mM Mg2+): largest increases in stability
oxytocin stability ([4]; citrate buffer with 2 or 5 mM Zn2+): large increases in stability
oxytocin stability ([4]; citrate, acetate or aspartate buffer, no divalent metal ions): small increase
original amount of oxytocin preserved [5]: around 70%
portion remained in monomeric form [6]: more than 80%
remaining oxytocin in monomeric form ([7]; 10 mM acetate buffer & 10 mM Na+, 55° C.): around 30%
percentage of oxytocin monomers ([7]; citrate buffer with Ca2+, 55° C.): up to 80%
percentage of remaining oxytocin monomers ([7]; citrate buffer with Zn2+, 55° C.): up to 90%
remaining oxytocin-monomers ([7]; non-buffered pure water with divalent metal ions, 4 or 55° C.): loss of monomers was only prevented at 4 °C in the presence of Ca^2+ or Zn^2+
